Eleven molecules from ChEMBL document CHEMBL1201862, “PubChem BioAssay data set” (2004) can be followed below.

Common to all, as to experiment: NCI anticancer screen, dose series, 48 h
The subject of assay [1] is ACHN.
The subject of assay [2] is BT-549.
Assay [3] has as its system CAKI-1.
For assay [4], the system named is CCRF-CEM.
Assay [5] concerns HCC 2998.
In assay [6] the test system is HCT-116.
Assay [7] deals with IGROV-1.
For assay [8], the system named is MCF7.
The subject of assay [9] is MDA-MB-435.
Assay [10] concerns Malme-3M.
For assay [11], the system named is NCI-H23.
Assay [12] has as its system OVCAR-5.
Assay [13] relates to OVCAR-8.
The subject of assay [14] is RXF 393.
Assay [15] deals with SK-MEL-2.
Assay [16] deals with SN12C.
Assay [17] concerns SNB-75.
Assay [18] relates to UO-31.
Assay [19] has as its system SK-MEL-28.
The subject of assay [20] is LOX IMVI.

Structures are written as SMILES.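 Cultured in 96-well plates, cells were exposed to test compound for 48 hours across five concentrations. GI50 is the concentration that inhibits growth by half.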 Activity calls are given as the source filed them. No stated cut-off is given here; in the data, active = GI50 up to about 1.1 µM and inactive = higher. Bounds are passed on as bounds.

With `COc1ccc(C(CC(=O)C(C)(C)CN2CCCCC2)SCCS(=O)(=O)O)cc1` (centres undefined), the GI50 in assay [1] was 33.2 µM (inactive); in [2], 45.7 µM (inactive); in assay [3] it was 34.9 µM (inactive); in assay [4] it was 17.1 µM (inactive); in assay [5] it was 67.3 µM (inactive); in assay [6], 29 µM (inactive). For the same molecule, the GI50 in [7] was 53.2 µM (inactive); in assay [8], 28.7 µM (inactive); in assay [9], 18.3 µM (inactive); in assay [10] it was 20.9 µM (inactive); in [11] it was 25.1 µM (inactive); in assay [12], 21.3 µM (inactive). Moreover, the GI50 in assay [13] was 33.3 µM (inactive); in assay [14], 40.4 µM (inactive); in assay [15], > 100 µM (inactive); in [16], 54.2 µM (inactive); in assay [17] it was 22.3 µM (inactive); in [18], 37.4 µM (inactive).

Regarding `C/C=C(/CBr)CCC(Br)C(C)(C)Cl.C/C=C(\CBr)CCC(Br)C(C)(C)Cl` (centres undefined), the GI50 in assay [1], in assay [2], in assay [3], in [4], in assay [5] and in assay [6] was > 10 µM (inactive) each time. The GI50 in assay [7], in assay [8], in [9], in [10], in assay [11] and in [12] was > 10 µM (inactive) throughout. Also, the GI50 in assay [13], in [14], in [19], in assay [15], in [16] and in assay [17] was > 10 µM (inactive) each time. In addition, in assay [18], the GI50 was > 10 µM (inactive).

Regarding `CC1OC(OC2C(OC(=O)[C@@H]3CC(C)(C)C[C@@H]4C5=CC[C@@H]6[C@@]7(C)C[C@H](O)[C@H](OC8OC(CO)C(O)C(O)C8O)[C@@](C)(CO)C7[C@H](O)C[C@@]6(C)[C@]5(C)C[C@@H](O)[C@H]43)OCC(O)C2O)C(O)C(O)C1O` (some centres undefined), the GI50 was > 15 µM (inactive) in [1]; > 15 µM (inactive) in assay [2]; > 15 µM (inactive) in assay [3]; > 15 µM (inactive) in [4]; 8.69 µM (inactive) in [5]; 7.57 µM (inactive) in assay [6]. Further, the GI50 was > 15 µM (inactive) in [7]; > 15 µM (inactive) in [20]; > 15 µM (inactive) in assay [8]; > 15 µM (inactive) in [9]; 7.05 µM (inactive) in assay [11]; 7.96 µM (inactive) in assay [12]. Also, the GI50 in assay [13] is > 15 µM (inactive); in assay [14] it was 7.45 µM (inactive); in assay [15] it was > 15 µM (inactive); in assay [16], 5.57 µM (inactive); in [17], > 15 µM (inactive); in assay [18], 6.49 µM (inactive).

`O=C1/C(=C\c2ccccc2)C(NC2CCCCC2)c2ccccc21` (centres undefined): the GI50 in assay [1] is 0.923 µM (active); in assay [2], 2.36 µM (inactive); in assay [3] it was 1.48 µM (inactive); in [4] it was 0.124 µM (active); in [6], 0.959 µM (active); in [7] it was 2.99 µM (inactive). The GI50 is 1.66 µM (inactive) in assay [20]; 1.37 µM (inactive) in [8]; 1.52 µM (inactive) in [9]; 1.46 µM (inactive) in [10]; 0.76 µM (active) in assay [11]; 4.17 µM (inactive) in assay [12]. Moreover, the GI50 was 2.12 µM (inactive) in [13]; 1.56 µM (inactive) in assay [14]; 2.54 µM (inactive) in assay [19]; 2.24 µM (inactive) in assay [15]; 1.55 µM (inactive) in assay [16]; 2.17 µM (inactive) in assay [17]. The GI50 in [18] is 1.1 µM (active).

On to `O=c1n(CCCN2CCOCC2)nc2n1-c1ccc3ccccc3c1SC2`, for which the GI50 in [2] is 30.7 µM (inactive); in assay [3], 49 µM (inactive); in [4], 45.5 µM (inactive); in [6], 40.8 µM (inactive); in assay [7] it was > 100 µM (inactive); in assay [20] it was 26.9 µM (inactive). The GI50 in [8] was 76.7 µM (inactive); in assay [9], 49 µM (inactive); in assay [12] it was 66.7 µM (inactive); in assay [13], 64.9 µM (inactive); in assay [14], 57.7 µM (inactive); in [19] it was 36.5 µM (inactive). Also, the GI50 in assay [15] was 65.8 µM (inactive); in assay [16] it was 71.9 µM (inactive); in [17] it was 47.8 µM (inactive); in assay [18], 20.6 µM (inactive).

Turning to `COc1ccc(C[n+]2cccc(O)c2)cc1`, the GI50 in assay [1], in assay [2], in [4], in assay [5], in assay [6] and in assay [7] was > 100 µM (inactive) in each case. Besides, the GI50 in assay [8], in assay [9], in [10], in assay [11], in [12] and in [13] was > 100 µM (inactive) throughout. Moreover, the GI50 in [14], in [19], in assay [15], in assay [16] and in assay [18] was > 100 µM (inactive) in each case.

For `Clc1ccc(OCc2nnc(CCCCCCCCc3nnc(COc4ccc(Cl)cc4Cl)o3)o2)c(Cl)c1`, the GI50 in assay [1] is > 100 µM (inactive); in assay [2], > 100 µM (inactive); in assay [3] it was 24.6 µM (inactive); in assay [5] it was > 100 µM (inactive); in [6], 15.7 µM (inactive); in assay [7] it was 9.4 µM (inactive). The GI50 in assay [8] was 42.3 µM (inactive); in assay [9] it was > 100 µM (inactive); in assay [10], 9.44 µM (inactive); in assay [11], > 100 µM (inactive); in assay [12], > 100 µM (inactive); in assay [14], > 100 µM (inactive). The GI50 is > 100 µM (inactive) in assay [19]; > 100 µM (inactive) in assay [15]; > 100 µM (inactive) in assay [16]; > 100 µM (inactive) in assay [17]; 44.1 µM (inactive) in assay [18].

As for `COc1c(O)cc2c(c1O)C(=O)C(Cc1ccc(O)cc1)CO2` (centres undefined), the GI50 was > 100 µM (inactive) in assay [1]; 46.7 µM (inactive) in [2]; 78.9 µM (inactive) in assay [3]; 99.1 µM (inactive) in assay [6]; > 100 µM (inactive) in assay [7]; > 100 µM (inactive) in [20]. The GI50 in assay [8] is > 100 µM (inactive); in [9], 28 µM (inactive); in assay [10], > 100 µM (inactive); in assay [11], > 100 µM (inactive); in assay [12] it was > 100 µM (inactive); in assay [13], 63.1 µM (inactive). Further, the GI50 in assay [14] was > 100 µM (inactive); in [19], 59.7 µM (inactive); in assay [15], > 100 µM (inactive); in [16] it was > 100 µM (inactive); in assay [17], 5.79 µM (inactive); in assay [18] it was > 100 µM (inactive).

Regarding `Cc1cc(C)nc(NS(=O)(=O)c2ccc(NC(=O)c3cc([N+](=O)[O-])cc([N+](=O)[O-])c3)cc2)n1`, the GI50 in assay [2] is > 100 µM (inactive); in assay [3], > 100 µM (inactive); in assay [4], 59.7 µM (inactive); in [6] it was > 100 µM (inactive); in [7], > 100 µM (inactive); in assay [20], 26.8 µM (inactive). Further, the GI50 in assay [8] is 55 µM (inactive); in assay [9], > 100 µM (inactive); in assay [10], 42.1 µM (inactive); in [11], > 100 µM (inactive); in assay [13] it was > 100 µM (inactive); in [14], > 100 µM (inactive). For the same molecule, the GI50 in assay [19] is 99.8 µM (inactive); in assay [15], > 100 µM (inactive); in [16], 70.6 µM (inactive); in assay [17], 15.6 µM (inactive); in [18], > 100 µM (inactive).

In the case of `COc1c(C)c(C/C=C(\C)CC/C=C(\C)CC/C=C(\C)CC/C=C(\C)CCC=C(C)C)c(OC)c(OC)c1OC`, the GI50 in assay [1] was 16.4 µM (inactive); in assay [2], 85.1 µM (inactive); in assay [3] it was 81.3 µM (inactive); in assay [4], 23.9 µM (inactive); in [6] it was 58.3 µM (inactive); in assay [7] it was 26.9 µM (inactive). In addition, the GI50 in [20] is 17.1 µM (inactive); in [8] it was 51.1 µM (inactive); in assay [9], 31.1 µM (inactive); in [11] it was 17.6 µM (inactive); in [12], > 100 µM (inactive); in [13], 18.4 µM (inactive). Besides, the GI50 in [14] was 17.4 µM (inactive); in [15], > 100 µM (inactive); in assay [16] it was 22.9 µM (inactive); in assay [17], 43 µM (inactive); in assay [18], 21.6 µM (inactive).

Take `O=C1c2ccc3ccccc3c2CCC1N1CCCCC1` (centres undefined): the GI50 was 17.7 µM (inactive) in assay [1]; 23.3 µM (inactive) in assay [2]; 16 µM (inactive) in assay [3]; 17.8 µM (inactive) in [6]; 15.2 µM (inactive) in [7]; 19.2 µM (inactive) in assay [20]. The GI50 is 33.3 µM (inactive) in assay [8]; 18 µM (inactive) in assay [9]; 17.6 µM (inactive) in assay [10]; 19.7 µM (inactive) in assay [11]; 19.7 µM (inactive) in [12]; 20.7 µM (inactive) in assay [13]. The GI50 in assay [14] was 20.6 µM (inactive); in assay [19], 18.1 µM (inactive); in [15] it was 19.6 µM (inactive); in assay [16] it was 15.6 µM (inactive); in assay [17] it was 17.4 µM (inactive); in assay [18] it was 15.6 µM (inactive).
